Data reported in patent US20080154102A1, “Intraoperative imaging methods” (priority 2006, published 2008).
Entries after “also recorded” stand apart in the source; their conditions may differ.

Assays:
ureters = assay: Ureteral mapping in rats; format: in vivo
Method: In rats, ureters were visualized by intravenous injection of 50 μL of CW800 CA at 10, 20, 50 and 100 μM to quantify the best concentration for […]. Fluorescence intensities of ureters, kidney, and abdominal wall were measured at 3, 5, 10, 20, and 30 min following injection.

Absorbance spectrometry = format: physicochemical; conditions: for Peak Absorbance in PBS: Table 2
Method: (§1) Absorbance spectrometry was performed with a 1-cm path length quartz cuvette in a USB2000 fiber-optic spectrometer (Ocean Optics, Dunedin, Fla.). Fluorescence spectrometry was performed with a 1-cm path length, 1.5 mL disposable methacrylate cuvette (Fisher Scientific, Hampton, N.H.) in a HR2000 fiber-optic spectrometer, and CUV-ALL-UV four-way cuvette holder (Ocean Optics), using a 655 nm laser diode light source (OPCOM O.E. Inc., Xiamen, China) with maximum output less than 5 mW. Data acquisition was performed with a computer using an OOI-Base32 spectrometer operating software package (Ocean Optics). The spectral range of the USB2000-FL spectrometer was from 350 to 1000 nm with spectral resolution of 7.6 nm, and that of the HR2000 spectrometer was from 200 to 1100 nm with a spectral resolution of 6.7 nm.

[1] = Fluorescence spectrometry and fluorescence quantum yield; format: physicochemical; conditions: for Peak Fluorescence in PBS / Quantum Yield in PBS: Table 2
Method: as §1
Fluorescence intensity was measured in each solvent (PBS, FBS, and methanol) at each concentration of the dye to determine the effect of the methylene blue concentration and solvents on total fluorescence yield. Fluorescence quantum yields of methylene blue in PBS, FBS, and methanol were calculated using oxazine725 in ethylene glycol (quantum yield: 19%) as a calibration standard, under the conditions of matched absorbance of methylene blue in each solvent.

[2] = Metabolism of CW800-CA, HPLC/mass spectrometry of urine samples; format: in vivo, pigs
Description: As described herein, ureter visualization can usually be obtained rapidly, even in a few minutes following injection. […] To clarify the point, an HPLC/mass spectrometry (using electrospray/time-of-flight (ES-TOF) method has been made.
Urine samples were collected from pigs (N=5), and analyzed. The dye usually can be pinpointed with a fluorescence detector equipped with ES-TOF mass spectrometry. Urine samples were first passed over a 6,000 Da cutoff gel-filtration column to remove contaminating proteins, and eluate less than 6,000 Da was analyzed on a C18 column. Buffer A was water, BioPlus (American Bioanalytical, Natick, Mass.) and Buffer B was acetonitrile. Using a gradient of 0 to 50% Buffer B over 30 min, urine samples were resolved on a 4.6×150 mm Symmetry C18 column (Waters) at a flow rate of 1 ml per minute with eluate fed into a Waters LCT ES-TOF mass spectrometer. Ion mode was set to electrospray negative (ES−), and cone and capillary voltages were set at 30 and 3000 (V), respectively. Desolvation and source temperature were set at 350, 140 (° C.), respectively. Data were analyzed with Masslynx (Waters) software.

common bile duct [3] = assay: Cholangiographic imaging with CW800-CA in pigs; format: in vivo; conditions: for detection of beads inserted into CBD: 5 mL of 50 μM intravenously, beads 2.5 and 3.5 mm
Method: Based on the results obtained in rats, CW800-CA was chosen as the contrast agent for a large animal model approaching the size of human. In 7 anesthetized pigs, 5 mL of 100 μM CW800-CA (15 μg/kg total) was injected into portal vein (N=3), or 5 mL of 50 μM (N=2) or 100 μM (N=2) of CW800-CA (7.5, and 15 μg/kg total, respectively) were injected intravenously.
Beads of 2.5 or 3.5 mm in diameter were inserted into common bile duct via papilla vateri by duodenostomy (N=2) to simulate blockage of the CBD.

[4] = cited from earlier work
common bile duct [5] = assay: Cholangiographic imaging with ICG, IR-786 and CW800-CA in rats; format: in vivo
Method: 50 μL of 100 μM IR-786 or CW800-CA (15 μg/kg), or 1 mM ICG (150 μg/kg), was injected into portal vein in anesthetized rats. A simultaneous color video/NIR fluorescence intraoperative imaging system was employed for quantification of NIR fluorescence images. In another 32 rats, bile duct was visualized by intravenous (N=16) or portal vein injection (N=16) of 50 μL of CW800-CA at 10, 20, 50 and 100 μM to quantify the best concentration for bile duct imaging. Fluorescence intensities of bile duct, liver (right lobe), and pancreas were measured at 3, 5, 10, 20, and 30 min following injection.

[6] = Fluorescence spectrometry and fluorescence quantum yield; format: physicochemical
[7] = Excretion to bile / clearance after injection; format: in vivo
thoracic duct = assay: Thoracic duct visualization in the rat model; format: in vivo; conditions: 50 μL of 10 μM into mesenteric lymph node, 5 minutes
Method: Additional experiments on thoracic duct visualization in the rat model were also performed using other NIR fluorescent agents.

[8] = system: perforating arteries and veins; assay: NIR imaging of skin perforating vessels for flap surgery; format: in vivo, Yorkshire pig; conditions: 35 kg pig, 0.5 mg (14 μg/kg) intravenously
Method: To evaluate the usefulness of NIR agents for such methods, 0.5 mg (14 μg/kg) indocyanine green (ICG) was injected intravenously into a 35 kg Yorkshire pig, and the skin was imaged as described herein.

[9] = system: common bile duct, vasculature, coronary artery, myocardium; assay: Multi-wavelength fluorescence imaging with MB and ICG; format: in vivo, pigs; conditions: pig
Method: Therefore, MB was used to visualize CBD in an anesthetized pig, while ICG was used to visualize vasculature.
To evaluate the possibility of multi-wavelength fluorescent imaging, ICG and methylene blue were used.
1 mg/kg methylene blue IV injection was followed 30 min after by 0.03 mg/kg ICG IV injection. […] NIR camera exposure time was 100 msec.
Next, one of the diagonal branches of the coronary artery (D2) was clamped (white arrow), and then 1 mg/kg of methylene blue was injected intravenously; see the second row of images. Just after releasing the clamp, 0.03 mg/kg ICG was injected intravenously. […] The right-most image in the second row was created by merging the image of the coronary arteriography using methylene blue at clamping D2 and the image using ICG after declamping D2.

[10] = rats, portal vein injection, listed as CW800CA

## CC1(C)C(/C=C/C2=C(Oc3ccc(S(=O)(=O)O)cc3)C(=C/C=C3/N(CCCCS(=O)(=O)O)c4ccc(S(=O)(=O)[O-])cc4C3(C)C)/CCC2)=[N+](CCCCCC(=O)O)c2ccc(S(=O)(=O)O)cc21 [CW800-CA]
ureters; rat
  visualization of ureters, in words: excellent visualization of ureters
ureters; rats, 50 μL (7.5 μg/kg)
  injected concentration showing the best SBR (ureter): 50 µM
ureters; rats, every concentration
  time of peak performance for ureter visualization: approximately 10 minutes
ureters; rats, intravenous injection
  time at which ureters could be identified: 3 min
Absorbance spectrometry; in PBS
  Peak Absorbance in PBS: 775 nm
[1]; in PBS
  Peak Fluorescence in PBS: 796 nm
  Quantum Yield in PBS: 9%
[2]; HPLC/ES-TOF mass spectrometry
  form in which the dye is excreted: excreted into the bile in a substantially unmetabolized form; also recorded: excreted into bile as an unmetabolized form
[2]; HPLC/mass spectrometry
  fluorescence chromatograph after excretion into urine: essentially a single peak with the expected mass spectrum
Common bile duct [3]
  detection of beads inserted into CBD: detected completely in 2 of 2 pigs
Common bile duct [3]; listed as CW800CA
  detection of beads inserted into CBD: All beads could be detected perfectly in each trial
Common bile duct [3]; portal vein or intravenous injection
  time until visualization of the CBD after dye injection: 7 to 10 min
[4]; Ohnishi et al.
  concentration above which significant quenching of fluorescence occurs: above 10 μM
Common bile duct [5]; compared with ICG and IR-786
  selectivity among three contrast agents for bile duct imaging: most selective
Common bile duct [5]; portal vein injection
  dose required for CBD detection, portal vein injection: 3 to 15 µg/kg
Common bile duct [5]; rats, 50 μL (7.5 μg/kg)
  injected concentration showing the best SBR (CBD): 50 µM
Common bile duct [5]; rats, every concentration
  time of peak performance for CBD visualization: approximately 10 minutes
Common bile duct [5]; rats, intravenous or portal injection
  time at which CBD could be identified: 3 min
Common bile duct [5]; rats, portal vein injection
  dye stacking to the liver: no significant dye stacking to the liver
  signal to background ratio (SBR) of CBD, in words: excellent signal to background ratio
Common bile duct [5]; [10]
  dye stacking to the liver: no dye stacking in the liver
  signal to background ratio (SBR) of CBD, in words: higher SBR than the other two
Common bile duct [5]; systemic intravenous injection
  dose required for CBD detection, systemic intravenous injection: 7.5 to 15 µg/kg
[6]
  emission of CW800-CA: ≈ 800 nm
[7]
  clearance after intravenous injection: rapidly cleared by: 1) the liver and excreted into bile and 2) the kidneys and excreted into urine
Thoracic duct
  thoracic duct in the fluorescence image: clearly visualized in the fluorescence image

## CC1(C)C(/C=C/C=C/C=C/C=C2\N(CCCCS(=O)(=O)O)c3ccc4ccccc4c3C2(C)C)=[N+](CCCCS(=O)(=O)[O-])c2ccc3ccccc3c21 [ICG, indocyanine green]
Absorbance spectrometry; in FBS
  Excitation Wavelength Maximum, (FBS): 800 nm
  Molar Extinction Coefficient, (FBS): 168,000 M^−1cm^−1
Absorbance spectrometry; in FBS, in M-1cm-1 (unit assumed)
  molar extinction coefficient in FBS: 168,000
Absorbance spectrometry; in PBS
  Excitation Wavelength Maximum, PBS: 779 nm
  Peak Absorbance in PBS: 779 nm
[1]; in FBS
  Emission Wavelength Maximum, (FBS): 811 nm
  Fluorescence Quantum Yield, (FBS): 9%
[1]; in FBS, from extinction coefficient and quantum yield
  ICG fluorescence relative to methylene blue fluorescence: about 8 times
[1]; in PBS
  Emission Wavelength Maximum, PBS: 806 nm
  Fluorescence Quantum Yield, PBS: 1%
  Peak Fluorescence in PBS: 806 nm
  Quantum Yield in PBS: 1%
[8]
  identification of perforating arteries and veins: can be identified
Common bile duct [5]; rats, portal vein injection
  dye stacking to the liver: significant dye stacking to the liver
[7]
  clearance after intravenous injection: rapidly cleared from the blood by the liver, but is only inefficiently transported into bile
[9]
  distribution in myocardium after arteriography: evenly distributed over the entire myocardium
[9]; 0.03 mg/kg intravenously
  detection of diagonal branch D2 after releasing the clamp: detected clearly
[9]; ICG 800 nm, MB 700 nm
  structure shown in two-channel NIR imaging: highlights blood vessels
Thoracic duct
  thoracic duct in the fluorescence image: clearly visualized in the fluorescence image

## CN1C(=CC=C2CCCC(C=CC3=[N+](C)c4ccccc4C3(C)C)=C2Cl)C(C)(C)c2ccccc21.[O-][Cl+3]([O-])([O-])[O-] [IR-786]
Absorbance spectrometry; in PBS
  Peak Absorbance in PBS: 768 nm
[1]; in PBS
  Peak Fluorescence in PBS: 803 nm
  Quantum Yield in PBS: 3.3%
Common bile duct [5]; rats, portal vein injection
  dye stacking to the liver: significant dye stacking to the liver
[7]
  clearance after intravenous injection: rapidly extracted into many tissues in the body, especially the liver, and is inefficiently transported into bile

## CCN(CC)c1ccc2nc3ccc(=[N+](CC)CC)cc-3oc2c1.[O-][Cl+3]([O-])([O-])[O-] [oxazine725]
[4]; in ethylene glycol
  quantum yield of calibration standard: 19%
